Values joined by “and” are separate entries in the source; they are usually repeats but may differ in a detail not shown here. Identical values can stand only once. Like-named read-outs stand apart in the source and are kept apart here.
Assays:
[1] = tested on: P. falciparum Dd2-2D4; experiment: P. falciparum asexual blood stage (ABS) growth assay, SYBR Green, 72 h, wild-type parasites; format: cell-based, Plasmodium falciparum; settings: Plasmodium falciparum, DD2; SI Fig 16b; values on -log scale; read-out: ABS - Dd2-2D4 (converted)
[2] = biological target: T1, PfcProRS (Plasmodium falciparum, UniProt Q8I5R7); format: binding; settings: for dose-response signal (normalized), SI Fig 8: single replicates
T1 construct: made in house; host or cells: E. coli SoluBL-21

[3] = biological target: HsProRS (Homo sapiens, UniProt P07814); experiment: TR-FRET ligand displacement assay with tracer MAT379 (CoraFluor-1-Halo and anti-His6 antibody formats); format: binding; parameters: made in house; host or cells: E. coli SoluBL-21; settings: for TR-FRET dose-response, normalized signal (SI Fig 11): individual replicates
HsProRS, sequence (P07814 996-1512): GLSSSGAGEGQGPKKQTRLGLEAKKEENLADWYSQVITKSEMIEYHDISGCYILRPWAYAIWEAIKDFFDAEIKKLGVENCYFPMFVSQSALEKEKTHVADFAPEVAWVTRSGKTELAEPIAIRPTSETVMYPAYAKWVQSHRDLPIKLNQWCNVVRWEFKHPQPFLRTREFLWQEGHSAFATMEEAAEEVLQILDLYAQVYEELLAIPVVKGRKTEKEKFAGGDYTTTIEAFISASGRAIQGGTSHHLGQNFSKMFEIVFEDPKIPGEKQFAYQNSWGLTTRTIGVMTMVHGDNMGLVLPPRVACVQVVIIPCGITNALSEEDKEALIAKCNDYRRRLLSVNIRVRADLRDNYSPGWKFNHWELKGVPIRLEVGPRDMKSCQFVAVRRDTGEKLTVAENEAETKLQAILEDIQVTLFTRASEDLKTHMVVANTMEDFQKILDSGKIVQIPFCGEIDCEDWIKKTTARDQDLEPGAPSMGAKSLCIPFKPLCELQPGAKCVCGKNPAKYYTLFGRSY

T1 sequence (Q8I5R7 249-746): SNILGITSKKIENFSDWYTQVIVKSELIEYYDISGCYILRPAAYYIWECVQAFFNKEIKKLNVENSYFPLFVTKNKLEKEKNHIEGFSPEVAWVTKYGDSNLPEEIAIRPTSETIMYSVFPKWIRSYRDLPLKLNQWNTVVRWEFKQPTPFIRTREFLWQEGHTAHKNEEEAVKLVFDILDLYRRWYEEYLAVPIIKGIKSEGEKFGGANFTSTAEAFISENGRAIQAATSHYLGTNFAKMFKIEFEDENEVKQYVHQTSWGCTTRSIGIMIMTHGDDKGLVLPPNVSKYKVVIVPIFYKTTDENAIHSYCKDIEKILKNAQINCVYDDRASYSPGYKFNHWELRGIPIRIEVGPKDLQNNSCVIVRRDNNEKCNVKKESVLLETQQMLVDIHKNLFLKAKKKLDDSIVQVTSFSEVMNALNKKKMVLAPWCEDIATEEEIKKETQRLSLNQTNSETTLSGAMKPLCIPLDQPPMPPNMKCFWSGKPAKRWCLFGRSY

`NC1(C(=O)Nc2nccnc2C(=O)NC2Cc3ccccc3C2)CCCCC1` [compound 17] was tested, and the EC50 [1] was 5.79 µM, the “dose-response signal (normalized), SI Fig 8” value ([2]; Log[inhibitor] (M) -5.000) was -2.16E-02 and 3.35E-02 and 3.85E-02 and the “dose-response signal (normalized), SI Fig 8” value ([2]; Log[inhibitor] (M) -5.301) was 9.18E-02 and 6.95E-02 and 1.07E-01. For the same compound, the “dose-response signal (normalized), SI Fig 8” value ([2]; Log[inhibitor] (M) -5.601) was 1.19E-01 and 1.25E-01 and 1.05E-01, the “dose-response signal (normalized), SI Fig 8” value ([2]; Log[inhibitor] (M) -5.904) was 2.12E-01 and 2.21E-01 and 2.19E-01 and the “dose-response signal (normalized), SI Fig 8” value ([2]; Log[inhibitor] (M) -6.208) was 4.81E-01 and 4.00E-01 and 5.13E-01. The “dose-response signal (normalized), SI Fig 8” value ([2]; Log[inhibitor] (M) -6.509) was 7.01E-01 and 7.64E-01 and 7.83E-01, the “dose-response signal (normalized), SI Fig 8” value ([2]; Log[inhibitor] (M) -6.796) was 9.36E-01 and 8.53E-01 and 9.43E-01 and the “dose-response signal (normalized), SI Fig 8” value ([2]; Log[inhibitor] (M) -7.108) was 1.01E+00 and 9.81E-01 and 1.06E+00. The “dose-response signal (normalized), SI Fig 8” value ([2]; Log[inhibitor] (M) -7.409) was 1.04E+00 and 9.85E-01 and 1.08E+00, the “dose-response signal (normalized), SI Fig 8” value ([2]; Log[inhibitor] (M) -7.710) was 9.36E-01 and 1.05E+00 and 9.73E-01 and the “dose-response signal (normalized), SI Fig 8” value ([2]; Log[inhibitor] (M) -8.000) was 9.16E-01 and 9.94E-01 and 1.09E+00. For the same compound, the “dose-response signal (normalized), SI Fig 8” value ([2]; Log[inhibitor] (M) -8.301) was 1.01E+00 and 9.14E-01 and 9.61E-01, the “dose-response signal (normalized), SI Fig 8” value ([2]; Log[inhibitor] (M) -8.602) was 9.67E-01 and 1.05E+00 and 9.29E-01 and the “dose-response signal (normalized), SI Fig 8” value ([2]; Log[inhibitor] (M) -9.000) was 9.54E-01 and 9.96E-01 and 9.84E-01. The “dose-response signal (normalized), SI Fig 8” value ([2]; Log[inhibitor] (M) -9.301) was 9.59E-01 and 9.29E-01 and 9.60E-01, the “PfcProRS -- best Kd” value ([2]; SI Fig 16a, values on -log scale) was 6.883 and the Kd ([3]; HsProRS (KD [nM]) mean, no added proline/ATP (-)) was 4430 nM. For the same compound, the Kd ([3]; HsProRS - best Kd, SI Fig 16a, values on -log scale) was 25.5 nM, the “normalized TR-FRET ligand displacement signal, dose-response replicates (SI Fig 6)” value ([3]; Log[inhibitor] (M) -5.000) was 2.29E-01 and 2.88E-01 and 2.34E-01 and the “TR-FRET dose-response, normalized signal (SI Fig 11)” value ([3]; Log[inhibitor] (M) -5.000) was 3.10E-01 and 3.50E-01 and 2.83E-01. The “normalized TR-FRET ligand displacement signal, dose-response replicates (SI Fig 6)” value ([3]; Log[inhibitor] (M) -5.301) was 4.79E-01 and 4.33E-01 and 5.59E-01, the “TR-FRET dose-response, normalized signal (SI Fig 11)” value ([3]; Log[inhibitor] (M) -5.301) was 5.37E-01 (2×) and 4.61E-01 and the “normalized TR-FRET ligand displacement signal, dose-response replicates (SI Fig 6)” value ([3]; Log[inhibitor] (M) -5.601) was 7.03E-01 and 7.28E-01 and 7.31E-01. The “TR-FRET dose-response, normalized signal (SI Fig 11)” value ([3]; Log[inhibitor] (M) -5.601) was 6.81E-01 and 6.32E-01 and 7.28E-01, the “normalized TR-FRET ligand displacement signal, dose-response replicates (SI Fig 6)” value ([3]; Log[inhibitor] (M) -5.904) was 9.55E-01 and 9.39E-01 and 8.52E-01 and the “TR-FRET dose-response, normalized signal (SI Fig 11)” value ([3]; Log[inhibitor] (M) -5.904) was 7.93E-01 and 8.32E-01 and 8.75E-01. The “normalized TR-FRET ligand displacement signal, dose-response replicates (SI Fig 6)” value ([3]; Log[inhibitor] (M) -6.208) was 9.44E-01 and 9.23E-01 and 8.86E-01, the “TR-FRET dose-response, normalized signal (SI Fig 11)” value ([3]; Log[inhibitor] (M) -6.208) was 9.35E-01 and 8.64E-01 and 9.27E-01 and the “normalized TR-FRET ligand displacement signal, dose-response replicates (SI Fig 6)” value ([3]; Log[inhibitor] (M) -6.509) was 9.47E-01 and 9.84E-01 and 9.68E-01. The “TR-FRET dose-response, normalized signal (SI Fig 11)” value ([3]; Log[inhibitor] (M) -6.509) was 8.93E-01 and 9.27E-01 and 9.36E-01, the “normalized TR-FRET ligand displacement signal, dose-response replicates (SI Fig 6)” value ([3]; Log[inhibitor] (M) -6.796) was 9.18E-01 and 9.88E-01 and 9.43E-01 and the “TR-FRET dose-response, normalized signal (SI Fig 11)” value ([3]; Log[inhibitor] (M) -6.796) was 9.97E-01 and 9.65E-01 and 9.84E-01. The “normalized TR-FRET ligand displacement signal, dose-response replicates (SI Fig 6)” value ([3]; Log[inhibitor] (M) -7.108) was 9.90E-01 and 9.75E-01 and 9.07E-01, the “TR-FRET dose-response, normalized signal (SI Fig 11)” value ([3]; Log[inhibitor] (M) -7.108) was 9.67E-01 and 9.70E-01 and 9.86E-01 and the “normalized TR-FRET ligand displacement signal, dose-response replicates (SI Fig 6)” value ([3]; Log[inhibitor] (M) -7.409) was 1.03E+00 and 1.00E+00 and 1.02E+00. For the same compound, the “TR-FRET dose-response, normalized signal (SI Fig 11)” value ([3]; Log[inhibitor] (M) -7.409) was 9.20E-01 and 9.49E-01 and 9.94E-01, the “normalized TR-FRET ligand displacement signal, dose-response replicates (SI Fig 6)” value ([3]; Log[inhibitor] (M) -7.710) was 1.02E+00 and 9.03E-01 and 1.03E+00 and the “TR-FRET dose-response, normalized signal (SI Fig 11)” value ([3]; Log[inhibitor] (M) -7.710) was 9.99E-01 and 9.64E-01 and 1.05E+00. For the same compound, the “normalized TR-FRET ligand displacement signal, dose-response replicates (SI Fig 6)” value ([3]; Log[inhibitor] (M) -8.000) was 1.01E+00 and 9.27E-01 and 9.75E-01, the “TR-FRET dose-response, normalized signal (SI Fig 11)” value ([3]; Log[inhibitor] (M) -8.000) was 1.01E+00 and 9.57E-01 and 9.53E-01 and the “normalized TR-FRET ligand displacement signal, dose-response replicates (SI Fig 6)” value ([3]; Log[inhibitor] (M) -8.301) was 1.01E+00 and 1.00E+00 and 1.05E+00. The “TR-FRET dose-response, normalized signal (SI Fig 11)” value ([3]; Log[inhibitor] (M) -8.301) was 9.70E-01 and 9.81E-01 and 1.01E+00, the “normalized TR-FRET ligand displacement signal, dose-response replicates (SI Fig 6)” value ([3]; Log[inhibitor] (M) -8.602) was 9.94E-01 and 1.05E+00 and 1.03E+00 and the “TR-FRET dose-response, normalized signal (SI Fig 11)” value ([3]; Log[inhibitor] (M) -8.602) was 9.48E-01 and 9.63E-01 and 9.29E-01. The “normalized TR-FRET ligand displacement signal, dose-response replicates (SI Fig 6)” value ([3]; Log[inhibitor] (M) -9.000) was 9.41E-01 and 1.01E+00 and 9.67E-01, the “TR-FRET dose-response, normalized signal (SI Fig 11)” value ([3]; Log[inhibitor] (M) -9.000) was 9.46E-01 and 9.80E-01 and 9.64E-01 and the “normalized TR-FRET ligand displacement signal, dose-response replicates (SI Fig 6)” value ([3]; Log[inhibitor] (M) -9.301) was 1.02E+00 and 9.62E-01 and 8.95E-01. The “TR-FRET dose-response, normalized signal (SI Fig 11)” value ([3]; Log[inhibitor] (M) -9.301) was 9.77E-01 (2×) and 9.15E-01.

From paper PMC9403976, “Elucidating the path to Plasmodium prolyl-tRNA synthetase inhibitors that overcome halofuginone resistance” (Nature Communications, 2022)
